Experimental data reported in patent US9090576B2, “2-substituted-p-quinone derivatives for treatment of oxidative stress diseases” (Edison Pharmaceuticals, Inc., priority 2008, dated 2015).

Legend:
Format in all cases: cell-based
[1] = test system: human dermal fibroblasts from Parkinson's Disease patients; assay: Rescue of BSO-stressed fibroblasts from Parkinson's Disease patients (screen as Example A); conditions: Fibroblast, BSO-stressed Parkinson's Disease fibroblasts (AG20439), less than about 150 nM, read-out: EC50, protection against PD
Outline: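 Dermal fibroblasts from a Parkinson's Disease patient (Coriell AG20439) were plated at 3,000 cells/well, attached overnight and pre-incubated overnight with serially diluted compounds (150 μM master solution). Survival was read by 1.2 μM calcein AM (50–70 min, RT, 485/525 nm fluorescence) and converted to EC50.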

[2] = test system: human dermal fibroblasts from LHON patients; assay: Rescue of BSO-stressed fibroblasts from LHON patients (screen as Example A); conditions: Fibroblast, BSO-stressed LHON fibroblasts (GM03858), less than about 150 nM, read-out: EC50, protection against LHON
Outline: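 LHON patient fibroblasts (Coriell GM03858) at 3,000 cells/well were pre-treated overnight with compounds serially diluted from a 150 μM master solution. Surviving cells were stained with 1.2 μM Calcein AM for 50-70 min at RT and read by fluorescence (485/525 nm), giving EC50.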

[3] = test system: human dermal fibroblasts from Huntington's patients; assay: Rescue of BSO-stressed fibroblasts from Huntington's patients (screen as Example A); conditions: Fibroblast, BSO-stressed Huntington's fibroblasts (GM 04281), less than about 150 nM, read-out: EC50, protection against Huntington's
Outline: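 Coriell Huntington's line GM 04281 plated at 3,000 cells/well and attached overnight at 37 °C. Survival was read by Calcein AM (1.2 μM, 50-70 min, RT) fluorescence at 485/525 nm, giving EC50.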

[4] = test system: Human dermal fibroblasts from Friedreich's Ataxia patients; assay: Rescue of BSO-stressed FRDA fibroblasts (Calcein AM viability); conditions: BSO-stressed FRDA fibroblasts (GM04078), less than about 150 nM, read-out: EC50, protection against FRDA
Outline: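 Patient FRDA fibroblasts (GM04078) seeded at 3,000 cells/well, given serially diluted compound from a 150 μM master solution, then stressed next day with 1 mM BSO.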

[5] = test system: human dermal fibroblasts from CoQ10 deficient patients; assay: Rescue of BSO-stressed fibroblasts from CoQ10 deficient patients (screen similar to Example A); conditions: Fibroblast, BSO-stressed fibroblasts from CoQ10 deficient patients harboring a CoQ2 mutation, less than about 150 nM, read-out: EC50, protection against CoQ10 deficiency
Experimental: A culture with FRDA fibroblasts was started from a 1 ml vial with approximately 500,000 cells stored in liquid nitrogen. Cells were propagated in 10 cm cell culture dishes by splitting every third day in a ratio of 1:3 until nine plates were available. Once confluent, fibroblasts were harvested. For 54 micro titer plates (96 well-MTP) a total of 14.3 million cells (passage eight) were re-suspended in 480 ml medium, corresponding to 100 μl medium with 3,000 cells/well. The remaining cells were distributed in 10 cm cell culture plates (500,000 cells/plate) for propagation. The plates were incubated overnight at 37° C. in an atmosphere with 95% humidity and 5% CO2 to allow attachment of the cells to the culture plate.
MTP medium (243 μl) was added to a well of the microtiter plate. The test compounds were unfrozen, and 7.5 μl of a 5 mM stock solution was dissolved in the well containing 243 μl medium, resulting in a 150 μM master solution. Serial dilutions from the master solution were made. The period between the single dilution steps was kept as short as possible (generally less than 1 second).
Plates were kept overnight in the cell culture incubator. The next day, 10 μl of a 10 mM BSO solution were added to the wells, resulting in a 1 mM final BSO concentration. Forty-eight hours later, three plates were examined under a phase-contrast microscope to verify that the cells in the 0% control (wells E1-H1) were clearly dead. The medium from all plates was discarded, and the remaining liquid was removed by gently tapping the plate inversed onto a paper towel.
100 μl of PBS containing 1.2 μM Calcein AM were then added to each well. The plates were incubated for 50-70 minutes at room temperature. After that time the PBS was discarded, the plate gently tapped on a paper towel and fluorescence (excitation/emission wavelengths of 485 nm and 525 nm, respectively) was read on a Gemini fluorescence reader. Data was imported into Microsoft Excel (EXCEL is a registered trademark of Microsoft Corporation for a spreadsheet program) and used to calculate the EC50 concentration for each compound.
Compounds of the invention were tested using a screen similar to the one described in Example A, but substituting FRDA cells with cells obtained from CoQ10 deficient patients harboring a CoQ2 mutation. The compounds were tested for their ability to rescue human dermal fibroblasts from CoQ10 deficient patients from oxidative stress.

Measured: EC50

COc1cccc(NC(=O)CCCC2=C(C)C(=O)C(C)=C(C)C2=O)c1 [N-(3-methoxyphenyl)-4-(2,4,5-trimethyl-3,6-dioxocyclohexa-1,4-dienyl)butanamide]
< 150 nM: all assays above

CC1=C(C)C(=O)C(CCCC(=O)Nc2ccc(C(F)(F)F)cc2)=C(C)C1=O [N-(4-(trifluoromethyl)phenyl)-4-(2,4,5-trimethyl-3,6-dioxocyclohexa-1,4-dienyl)butanamide]
< 150 nM: all assays above

CC1=C(C)C(=O)C(CCCC(=O)NCc2ccc(Cl)cc2)=C(C)C1=O [N-(4-chlorobenzyl)-4-(2,4,5-trimethyl-3,6-dioxocyclohexa-1,4-dienyl)butanamide]
< 150 nM: all assays above

CC1=C(C)C(=O)C(CCCC(=O)NCCc2ccc(Cl)cc2)=C(C)C1=O [N-(4-chlorophenethyl)-4-(2,4,5-trimethyl-3,6-dioxocyclohexa-1,4-dienyl)butanamide]
< 150 nM: all assays above

CC1=C(C)C(=O)C(CCCC(=O)N(C)c2ccc(Cl)cc2)=C(C)C1=O [N-(4-chlorophenyl)-N-methyl-4-(2,4,5-trimethyl-3,6-dioxocyclohexa-1,4-dienyl)butanamide]
< 150 nM: all assays above

CC1=C(C)C(=O)C(CCCC(=O)Nc2ccc(C#N)cc2)=C(C)C1=O [N-(4-cyanophenyl)-4-(2,4,5-trimethyl-3,6-dioxocyclohexa-1,4-dienyl)butanamide]
< 150 nM: all assays above

CC1=C(C)C(=O)C(CCCC(=O)NCc2ccc(F)cc2)=C(C)C1=O [N-(4-fluorobenzyl)-4-(2,4,5-trimethyl-3,6-dioxocyclohexa-1,4-dienyl)butanamide]
< 150 nM: all assays above

CC1=C(C)C(=O)C(CCCC(=O)NCCc2ccc(F)cc2)=C(C)C1=O [N-(4-fluorophenethyl)-4-(2,4,5-trimethyl-3,6-dioxocyclohexa-1,4-dienyl)butanamide]
< 150 nM: all assays above

CC1=C(C)C(=O)C(CCCC(=O)Nc2ccc(F)cc2)=C(C)C1=O [N-(4-fluorophenyl)-4-(2,4,5-trimethyl-3,6-dioxocyclohexa-1,4-dienyl)butanamide]
< 150 nM: all assays above

CC1=C(C)C(=O)C(CCCC(=O)N(C)c2ccc(F)cc2)=C(C)C1=O [N-(4-fluorophenyl)-N-methyl-4-(2,4,5-trimethyl-3,6-dioxocyclohexa-1,4-dienyl)butanamide]
< 150 nM: all assays above

CC1=C(C)C(=O)C(CCCC(=O)Nc2ccc3c(c2)OCO3)=C(C)C1=O [N-(benzo[d][1,3]dioxol-5-yl)-4-(2,4,5-trimethyl-3,6-dioxocyclohexa-1,4-dienyl)butanamide]
< 150 nM: all assays above

CCN(Cc1ccccc1)C(=O)CCCC1=C(C)C(=O)C(C)=C(C)C1=O [N-benzyl-N-ethyl-4-(2,4,5-trimethyl-3,6-dioxocyclohexa-1,4-dienyl)butanamide]
< 150 nM: all assays above

CC1=C(C)C(=O)C(CCCC(=O)N(Cc2ccccc2)C(C)C)=C(C)C1=O [N-benzyl-N-isopropyl-4-(2,4,5-trimethyl-3,6-dioxocyclohexa-1,4-dienyl)butanamide]
< 150 nM: all assays above

CC1=C(C)C(=O)C(CCCC(=O)N(C)Cc2ccccc2)=C(C)C1=O [N-benzyl-N-methyl-4-(2,4,5-trimethyl-3,6-dioxocyclohexa-1,4-dienyl)butanamide]
< 150 nM: all assays above

CC1=C(C)C(=O)C(CCCC(=O)N(C)c2ccccc2)=C(C)C1=O [N-methyl-N-phenyl-4-(2,4,5-trimethyl-3,6-dioxocyclohexa-1,4-dienyl)butanamide]
< 150 nM: all assays above

CC1=C(C)C(=O)C(CCCC(=O)Nc2ccc(C)cc2)=C(C)C1=O [N-p-tolyl-4-(2,4,5-trimethyl-3,6-dioxocyclohexa-1,4-dienyl)butanamide]
< 150 nM: all assays above

CC1=C(C)C(=O)C(CCCC(=O)Nc2ccccc2)=C(C)C1=O [N-phenyl-4-(2,4,5-trimethyl-3,6-dioxocyclohexa-1,4-dienyl)butanamide]
< 150 nM: all assays above
